Assays:
[1] = test system: patients with type 2 diabetes; settings: overt diabetic nephropathy; cited from earlier work
[2] = Storage of Form A crystals at room temperature (XRPD and HPLC control); type: physicochemical; settings: 20-25° C., 92% relative humidity
Experimental: All XRPD patterns for the solid forms described herein have been obtained as described hereafter. X-ray powder diffraction patterns were collected on a Bruker D8 Advance X-ray diffractometer equipped with a Lynxeye detector operated with CuKα-radiation in reflection mode (coupled two Theta/Theta). Typically, the X-ray tube was run at of 40 kV/40 mA. A step size of 0.02° (2θ) and a step time of 76.8 sec over a scanning range of 3-50° in 2θ were applied. The divergence slit was set to fixed 0.3. Powders were slightly pressed into a silicon single crystal sample holder with depth of 0.5 mm and samples were rotated in their own plane during the measurement. Diffraction data are reported using combined Cu Kα1 and Kα2 radiation, without Kα2 stripping. The accuracy of the 2θ values as provided herein is in the range of +/−0.1-0.2° as it is generally the case for conventionally recorded X-ray powder diffraction patterns. A sample of Form A crystals of the COMPOUND (as obtained according to Example 1 above) has been stored at a temperature of 20-25° C. at 92% relative humidity for 2 months. […] The same result was obtained after storage for 8 weeks under the above conditions.

[3] = Hygroscopicity by gravimetric vapor sorption (GVS); type: physicochemical
Text: Mass increase of a sample as obtained according to Example 1 in the first cycle from 40% r.h. to 80% r.h. corresponds to 0.4%. At 95% r.h. 2.2% moisture were taken up in a reversible way without hysteresis upon drying.

[4] = test system: patients with rHT; settings: 14 week phase 3 trial, versus 12% in each of the other groups; cited from earlier work
[5] = test system: Spontaneously hypertensive rats (SHR); assay: Blood pressure by telemetry in SHR, SGLT-2 inhibitor alone or in combination with ACT-132577; type: in vivo, rat; settings: 30 mg/kg/day by gavage
Text: Spontaneously hypertensive rats (SHR) are instrumented micro-surgically with a telemetry pressure transmitter implanted in the peritoneal cavity (Data Science International, Minnesota, USA) under isoflurane-induced narcosis. In brief, the pressure catheter is inserted into the aorta, below the renal artery pointing upstream. The abdomen is closed and the transmitter sutured to the abdominal musculature. Blood pressure is collected continuously using the Dataquest ART Platinum acquisition system (version 4.36). Drugs (ACT-132577 or SGLT2 inhibitors) or vehicle are administered by gavage (n=4-7 per group) alone or in combination. Systolic, mean and diastolic arterial pressures, and heart rate are collected at 5-minute intervals until the blood pressure curve comes back to baseline.
Because it takes several days for the SGLT2 inhibitors to exert an effect on blood pressure, rats are treated first for 12 days with either vehicle (5 ml/kg/day), or canagliflozin (30 mg/kg/day) or empagliflozin (30 mg/kg/day), then ACT-132577 (30 mg/kg/day) is co-administered for 3 additional days.

[6] = test system: conscious, male hypertensive deoxycorticosterone acetate salt rats; assay: Acute effects of Exforge HCT alone or with ACT-132577 or spironolactone in DOCA-salt rats; type: in vivo, rat; settings: aprocitentan 10 mg/kg or spironolactone 300 mg/kg, single oral doses
Text: Res. (1975), 36, 300-309). In the DOCA-salt rats, hypertension is induced by the combination of unilateral nephrectomy, implantation of pellets of the mineralocorticoid analog DOCA, and provision of 1% sodium chloride in drinking water. 7-9 DOCA-salt rats per treatment group are used for this test. The results obtained regarding MAP are summarised in FIGS. 17 and 18 wherein each data point is presented as a 6-hour mean.

[7] = test system: conscious, male spontaneaously hypertensive rats; assay: Acute effects of Exforge HCT alone or with ACT-132577 or spironolactone in SHRs; type: in vivo, rat; settings: aprocitentan 100 mg/kg or spironolactone 300 mg/kg oral
Experimental: The acute effects of Exforge HCT® (i.e. a fixed dose combination of valsartan/amlodipine/hydrochlorothiazide; dosage adapted for 1.6 mg/kg/0.1 mg/kg/0.25 mg/kg for valsartan/amlodipine/hydrochlorothiazide, respectively) on blood pressure, in particular on mean arterial blood pressure (hereafter “MAP”), and heart rate (hereafter “HR”) in combination with ACT-132577 or spironolactone can be evaluated by means of telemetry in conscious, male spontaneaously hypertensive rats (hereafter “SHRs”—see details about this model in Atanur et al., Genome Res. (2010), 20, 791-803).
9 SHRs per treatment group are used for this test. To match the maximal effect on blood pressure of co-administereds drug in this model, aprocitentan 100 mg/kg is administrated orally on the 3rd day following 3-day oral administration of Exforge HCT® mg/kg and spironolactone 300 mg/kg is co-administered orally with Exforge HCT® on the 1st day followed by 2 days of Exforge HCT® administration. The results obtained regarding MAP are summarised in FIGS. 15 and 16 wherein each data point is presented as a 6-hour mean.

For `COc1ccccc1Oc1c(NS(=O)(=O)c2ccc(C)cn2)nc(-c2ccncc2)nc1OC` [Avosentan, avosentan], the “Albumin-to-creatinine ratio (ACR)” value [1] is given as “significantly reduced”.
With `NS(=O)(=O)Nc1ncnc(OCCOc2ncc(Br)cn2)c1-c1ccc(Br)cc1` [Form A, {5-(4-bromo-phenyl)-6-[2-(5-bromo-pyrimidin-2-yloxy)-ethoxy]-pyrimidin-4-yl}-sulfamide] the “X-ray powder diffraction of the sample after storage” value ([2]; 2 months) was “still consisting only in Form A crystals”, the “HPLC control after storage (change in peak area %, degradation)” value ([2]; 8 weeks) was “no significant degradation” and the Moisture taken up ([3]; at 95% r.h., reversible, without hysteresis upon drying) was 2.2%. The Mass increase ([3]; first cycle from 40% r.h. to 80% r.h.) was 0.4% and the “Hygroscopicity (GVS)” value ([3]; sample as obtained according to Example 1) was “slightly hygroscopic”.
In the case of `COc1cc(OC)nc(O[C@H](C(=O)O)C(OC)(c2ccccc2)c2ccccc2)n1` [darusentan], the “Fluid retention/edema (most frequent adverse event)” value [4] is given as 28%.
With `OC[C@H]1O[C@@H](c2ccc(Cl)c(Cc3ccc(O[C@H]4CCOC4)cc3)c2)[C@H](O)[C@@H](O)[C@@H]1O` [empagliflozin, reference compound] the “Maximal effect on MAP of SGLT2 inhibitor alone” value [5] was −13±3 mmHg.
In the case of `CC(=O)S[C@@H]1CC2=CC(=O)CC[C@]2(C)[C@H]2CC[C@@]3(C)[C@@H](CC[C@@]34CCC(=O)O4)[C@H]12` [spironolactone, reference compound], the “Blood pressure when added on top of Exforge HCT” value [6] is reported as “further reduced blood pressure” and the “Blood pressure when added on top of Exforge HCT” value [7] is reported as “further reduced blood pressure”.
In the case of canagliflozin [reference compound], the “Maximal effect on MAP of SGLT2 inhibitor alone” value [5] is reported as −9±1 mmHg.

From patent US12144811B2, “Combination of a 4-pyrimidinesulfamide derivative with an SGLT-2 inhibitor for the treatment of endothelin related diseases” (IDORSIA PHARMACEUTICALS LTD, priority 2017, dated 2024)
